Patent US12545668B2, “Cyclic amine derivative as agent for promoting advillin function, and novel cyclic amine derivative and pharmaceutical use thereof” (Toray Industries, Inc., priority 2018, dated 2026)

What was measured:
[1] = Specific binding of 3H-labeled compound to membrane fraction prepared from rat sciatic nerve; details: 3H-labeled compound of Example 7, 37° C., 1 hour; relative to dorsal root ganglion
Method: A binding property of a ^3H-labeled cyclic amine derivative (I) to each of membrane fractions prepared from various tissues of a rat was evaluated, and thus, a tissue containing a molecular target of the cyclic amine derivative (I) was clarified.
As the cyclic amine derivative (I), the compound of Example 7 was used.
Male SD rats (manufactured by Charles River Laboratories Japan, Inc.) of 7 weeks old were used. Rats were anesthetized with isoflurane, and euthanized by exsanguination from the abdominal aorta using a syringe having an inner wall treated with a heparin sodium injection (manufactured by AY Pharmaceuticals Co., Ltd.). […]
A homogenate sample of each tissue thus collected was prepared, using a homogenizer, by adding a homogenize buffer (sucrose (1 M), Tris-HCl (0.5 M), and 1× protease inhibitor cocktail (manufactured by Sigma Aldrich), pH 7.6) to the collected tissue. […] The resultant supernatant was ultracentrifuged at 100,000×g at 4° C. for 60 minutes, and the thus obtained precipitate was suspended in Krebs-Ringer bicarbonate buffer (manufactured by Sigma Aldrich) to quantitatively determine the amount of protein using a BCA protein assay kit (manufactured by Thermo Fisher Scientific K.K.). […]

[2] = test system: primary cultured cells of rat dorsal root ganglion; assay: Axon (neurite) extension in primary cultured cells of rat dorsal root ganglion with oxaliplatin-induced axonal injury; assay type: cell-based; details: 7 days
Excerpt: The effect of the cyclic amine derivative (I) or a pharmacologically acceptable salt thereof on neurite extension in primary cultured cells of rat dorsal root ganglion was examined.
Male SD rats (manufactured by Charles River Laboratories Japan, Inc.) of 4 to 7 weeks old were used. Each rat was anesthetized by intraperitoneally administering urethane. After confirming that the rat was anesthetized, the rat was rapidly euthanized by exsanguination from the abdominal aorta. After incision of the dorsal part, the spinal column was excised and cooled on ice. The dorsal side of the spinal column was cut off, and the spinal cord was removed from the ventral side of the spinal column to expose the dorsal root ganglia on the ventral side of the spinal column. The dorsal root ganglia (L3 to 6, right and left) were excised with tweezers, and dipped in ice-cold Leibovitz's L-15 medium (manufactured by Thermo Fisher Scientific), and the bundles of nerve fibers were removed under a stereoscopic microscope. The dorsal root ganglia from which the bundles of nerve fibers had been removed were made fine slits with ophthalmic scissors to be used as dorsal root ganglion pieces.
The dorsal root ganglion pieces were dipped in about 3 mL of a solution of collagenase A (manufactured by Roche Molecular Systems, Inc.), followed by incubation at 37° C. for 20 minutes. After the incubation, the resultant was centrifuged at 200×g at 25° C. for 5 minutes to remove a collagenase A solution corresponding to the supernatant. About 1 mL of a solution of trypsin was added thereto, followed by incubation at 37° C. for 5 minutes. Subsequently, about 3 mL of DMEM (manufactured by Thermo Fisher Scientific K.K.) containing 10% fetal bovine serum was added to the resultant, the resultant centrifuged at 200×g at room temperature for 5 minutes, and then the supernatant removed. […]

## CN(C)C1CCN(C(=O)C[C@H](O)c2nccn2C)CC1 [Example 7, (S)-1-(4-(dimethylamino)piperidin-1-yl)-3-hydroxy-3-(1-methyl-1H-imidazol-2-yl)propan-1-one]
[1]
  specific binding to the membrane fraction prepared from the sciatic nerve, as % of the specific binding to the dorsal root ganglion membrane fraction: 42%
[2]; 100 μM with oxaliplatin 3 μM, FIG. 4, FIG. 5, p<0.025 Williams
  length of a neurite compared to the oxaliplatin alone treated group: significantly increased
[2]; 10, 30 or 100 μM with oxaliplatin 3 μM, FIG. 5
  length of a neurite compared to the oxaliplatin alone treated group: found to increase
